Several values for one entry are separate records, joined by “and”; a condition that tells them apart may be missing. Equal entries are not always repeated.
Experiments:
Rattus norvegicus [1] = conditions: subchronic, duration: 13 weeks, oral, diet, Crl
Canidae [2] = conditions: oral, Beagle
Rattus norvegicus [3] = conditions: for LC50 / LD50: acute
Mus musculus [4] = conditions: acute; injection; intravenous
Rattus norvegicus [5] = conditions: for LEL: uterotrophic, Active
Mus musculus [6] = conditions: uterotrophic, Active
Oryctolagus sp. = conditions: acute, dermal
Canidae [7] = conditions: chronic, oral, diet, Dog Other
Rattus norvegicus [8] = conditions: chronic; duration: 104 weeks; oral; diet; Liver: Increased weight
Canidae [9] = conditions: chronic; oral; M/F; Dog Other; reduced erythrocyte counts
Canidae [10] = conditions: oral, M/F, Beagle
[11] = subchronic, duration: 13 weeks, diet
[12] = subchronic, duration: 13 weeks, oral, diet
[13] = duration: 7 days, injection, subcutaneous
[14] = reproduction developmental, oral, diet, Sprague-Dawley, generation: F0
[15] = reproduction developmental, oral, diet, Sprague-Dawley, generation: F1
[16] = subchronic, duration: 3 months, oral, diet, BOR/WISW (SPF Cpb)
[17] = Hershberger, duration: 10 days, oral, gavage, Sprague-Dawley, active + Negative + Antiandrogenic + anti-androgenic + significant increase in liver wt at 100 / decrease in AST wt and serum Testosterone …
[18] = chronic, duration: 1 years, diet, Increased plasma cholesterol (males)
[19] = duration: 9 months, capsule, Decreased bodyweights, mortality, prostatic malfunction, foci of softening in the brainstem, & testicular atrophy

CCCCCCO [1-Hexanol]
NOAEL (Rattus norvegicus [1]; F): 1240 mg/kg-day
NOEL (Rattus norvegicus [1]; F): 1240 mg/kg-day
NOAEL (Rattus norvegicus [1]; M): 1130 mg/kg-day
NOEL (Rattus norvegicus [1]; M): 1130 mg/kg-day
LOAEL (% diet) (Canidae [2]; [11]): 1
NOAEL (% diet) (Canidae [2]; [11]): > 0.5
LC50 (Rattus norvegicus [3]; inhalation): > 21 µg/mL
NOAEL (Rattus norvegicus [3]; developmental, inhalation, Sprague-Dawley): > 3500 mg/m3
NOAEL (Rattus norvegicus [3]; reproduction developmental, inhalation, F, Sprague-Dawley): > 3500 mg/m3
LOAEL (% diet) (Rattus norvegicus [3]; [12]): 1
NOAEL (% diet) (Rattus norvegicus [3]; [12]): > 0.5
LD50 (Mus musculus [4]): 100 mg/kg

O=C(c1ccc(O)cc1O)c1ccc(O)cc1O [2,2',4,4'-Tetrahydroxybenzophenone]
LEL (Rattus norvegicus [5]; duration: 3 days, injection, subcutaneous): 100 mg/kg-day and 200 mg/kg-day and 230 mg/kg-day
LEL (Rattus norvegicus [5]; duration: 5 days, oral): 100 mg/kg-day and 250 mg/kg-day
LEL (Rattus norvegicus [5]; duration: 90 days, oral, diet): 185 mg/kg-day
LEL (Mus musculus [6]; [13]): 300 mg/kg-day
LEL (Mus musculus [6]; duration: 7 days, oral): 1000 mg/kg-day

CC(C)CC(C)(O)C#CC(C)(O)CC(C)C (centres undefined) [2,4,7,9-Tetramethyl-5-decyne-4,7-diol]
LOAEL (Canidae [2]; chronic, duration: 130 days): 200 mg/kg-day
LC50 (Rattus norvegicus [3]; Inhalation): > 20 µg/mL
LD50 (Rattus norvegicus [3]; dermal): > 2000 mg/kg
LD50 (Rattus norvegicus [3]; oral, Sprague-Dawley): > 500 mg/kg
NOAEL (Rattus norvegicus [3]; [14]): 500 mg/kg-day
NOAEL (Rattus norvegicus [3]; [15]): 500 mg/kg-day
NOAEL (Rattus norvegicus [3]; short-term, duration: 28 days, oral, diet): 5000 ppm
LD50 (Oryctolagus sp.; occlusive, New Zealand): > 1000 mg/kg

O=C(c1ccccc1)c1ccc(O)cc1O [2,4-Dihydroxybenzophenone]
LEL (Rattus norvegicus [5]; duration: 3 days, injection, intraperitoneal): 500 mg/kg-day
LEL (Mus musculus [6]; [13]): 300 mg/kg-day
LEL (Mus musculus [6]; duration: 7 days, oral): 1000 mg/kg-day

CC(C)(C)CC(C)(C)c1ccc(O)cc1 [4-(1,1,3,3-Tetramethylbutyl)phenol]
LEL (Rattus norvegicus [5]; duration: 1 days, injection, subcutaneous): 200 mg/kg-day and 600 mg/kg-day
LEL (Rattus norvegicus [5]; duration: 2 days, injection, subcutaneous): 50 mg/kg-day
LEL (Rattus norvegicus [5]; duration: 14 days, injection, subcutaneous): 25 mg/kg-day
LEL (Mus musculus [6]; duration: 9 days, injection, subcutaneous): 50 mg/kg-day
LD50 (Rattus norvegicus [3]; oral): 2200 mg/kg
LD50 (Rattus norvegicus [3]; oral, Sprague-Dawley): > 2000 mg/kg
NOAEL (Rattus norvegicus [3]; reproduction developmental, oral, diet, Sprague-Dawley): ≥ 2000 ppm
NOAEL (Rattus norvegicus [3]; [14]): 200 ppm
NOAEL (Rattus norvegicus [3]; [15]): 200 ppm
LOAEL (Rattus norvegicus [3]; [16]): 28.8 mg/kg-day
NOAEL (Rattus norvegicus [3]; [16]): 2.88 mg/kg-day
LD50 (Oryctolagus sp.): > 2000 mg/kg

CC(COc1ccc(C(C)(C)C)cc1)OS(=O)OCCCl (centres undefined) [Aramite]
NOAEL (Canidae [7]; duration: 52 weeks, Liver: Degeneration): 10 mg/kg-day
NOAEL (Rattus norvegicus [8]): 7.8 mg/kg-day

CCCCN(CC)c1c([N+](=O)[O-])cc(C(F)(F)F)cc1[N+](=O)[O-] [Benfluralin]
LOEL (Rattus norvegicus [5]; [17]): 400 mg/kg-day and 750 mg/kg-day
NOEL (Rattus norvegicus [5]; [17]): 100 mg/kg-day and 250 mg/kg-day
NOAEL (Canidae [7]; duration: 1 years, Erythrocytes: Decreased count): 25 mg/kg-day
LOAEL (Canidae [9]): 125 mg/kg-day
NOAEL (Canidae [9]): 25 mg/kg-day

CCNc1nc(Cl)nc(NC(C)(C)C#N)n1 [Cyanazine]
NOEL (Canidae [7]; duration: 1 years, Blood: Altered clinical chemistry parameters + Blood: Increased platelet count + Whole body: Decreased weight): 0.625 mg/kg-day

N#Cc1c(N)nc(NC2CC2)nc1N [Dicyclanil]
LOEL (Canidae [10]; [18]): 4.4 mg/kg-day
NOEL (Canidae [10]; [18]): 0.71 mg/kg-day

N=C(N)c1ccc(N=NNc2ccc(C(=N)N)cc2)cc1 [Diminazene]
LOEL (Canidae [10]; [19]): 60 mg/kg-day
NOEL (Canidae [10]; [19]): 20 mg/kg-day

COC(=O)Nc1nc2ccc(C(=O)c3ccc(F)cc3)cc2[nH]1 [Flubendazole]
NOEL (Canidae [10]; duration: 3 months, capsule, Atrophic change in prostate): 2.5 mg/kg-day
NOEL (Canidae [10]; subchronic, duration: 3 months, capsule, Atrophic change in prostate): 2.5 mg/kg-day
